Measured values: patent US10017827B2, “Herbicide-resistant sunflower plants with multiple herbicide resistant alleles of AHASL1 and methods of use” (BASF AGROCHEMICAL PRODUCTS B.V., priority 2007, dated 2018)
Read-outs that look alike come from different tables or passages of the source. Marks after values point to notes of the source that are not given here.

How the values were obtained:
[1] = tested on: AHAS enzyme, WT line (B7); experiment: Enzyme assay for AHAS activity, Sets 1 and 2; conditions: 100 μM imazamox
sunflower line B770 (WT) = experiment: Greenhouse whole-plant response to metsulfuron; conditions: 14 DAT
[2] = tested on: sunflower line GM40 (A122T/A122T); experiment: Greenhouse whole-plant response to metsulfuron; conditions: 14 DAT
[3] = tested on: sunflower hybrid cmsGM40xBTSu-R1 (A122T/P197L); experiment: Greenhouse whole-plant response to metsulfuron; conditions: 14 DAT
[4] = tested on: sunflower line L4 (A122T/A122T); experiment: Greenhouse whole-plant response to metsulfuron; conditions: 14 DAT
[5] = tested on: sunflower hybrid cmsGM40xL4 (A122T/A122T); experiment: Greenhouse whole-plant response to metsulfuron; conditions: 14 DAT
[6] = tested on: sunflower line GM1606 (A122T/A122T); experiment: Greenhouse whole-plant response to metsulfuron; conditions: 14 DAT
[7] = tested on: sunflower line GM40 (A122T); assay type: in vivo; conditions: 160 gr/ha at V4, 14 DAT
[8] = tested on: sunflower line L5 (BTK 47, WT susceptible); conditions: for biomass accumulation, % of untreated: L5, 14 DAT
[9] = tested on: sunflower line L4 (A122T); experiment: Greenhouse whole-plant response to imazapyr; assay type: in vivo; conditions: 14 DAT
Description: (§1) Experiment was arranged as a randomized block design with a full factorial (sunflower line×treatment) arrangement of treatments and 10 replications.

[10] = tested on: sunflower line L3 (cmsGM40, A122T); experiment: Greenhouse whole-plant response to imazapyr; assay type: in vivo; conditions: 14 DAT
Description: as §1

[11] = tested on: A122T sunflower genotypes (mean of H2, L3, L4); experiment: Greenhouse whole-plant response to imazapyr; assay type: in vivo; conditions: 14 DAT
Description: as §1

[12] = A122T mean (H2,L3,L4), 2x (160 g ai/ha)
[13] = A122T mean (H2,L3,L4), 3x (240 g ai/ha)

COCc1cnc(C2=NC(C)(C(C)C)C(=O)N2)c(C(=O)O)c1 (stereo not shown) [imazamox]
AHAS activity, % of untreated control ([1]; Set 1): 17%
AHAS activity, % of untreated control ([1]; Set 2): 11%

COC(=O)c1ccccc1S(=O)(=O)NC(=O)Nc1nc(C)nc(OC)n1 [metsulfuron]
Dry Matter accumulation (DMA) (sunflower line B770 (WT); 1X (5 g ai./ha)): 28.43^b
Mean Height Reduction (PH) (sunflower line B770 (WT); 1X (5 g ai./ha)): 21.73^a*
Phytotoxicity Index (PI, 0-9) (sunflower line B770 (WT); 1X (5 g ai./ha)): 8.50^bc
Dry Matter accumulation (DMA) (sunflower line B770 (WT); 2X (10 g ai./ha)): 28.77^b
Mean Height Reduction (PH) (sunflower line B770 (WT); 2X (10 g ai./ha)): 18.20^a
Phytotoxicity Index (PI, 0-9) (sunflower line B770 (WT); 2X (10 g ai./ha)): 9.00^d
Dry Matter accumulation (DMA) ([2]; 1X (5 g ai./ha)): 25.73^ab
Mean Height Reduction (PH) ([2]; 1X (5 g ai./ha)): 21.39^a
Phytotoxicity Index (PI, 0-9) ([2]; 1X (5 g ai./ha)): 9.00^d
Dry Matter accumulation (DMA) ([2]; 2X (10 g ai./ha)): 20.69^a
Mean Height Reduction (PH) ([2]; 2X (10 g ai./ha)): 21.17^a
Phytotoxicity Index (PI, 0-9) ([2]; 2X (10 g ai./ha)): 9.00^d
Mean Height Reduction (PH) ([3]; 1X (5 g ai./ha)): 77.04^b
Phytotoxicity Index (PI, 0-9) ([3]; 1X (5 g ai./ha)): 0.00^a
Dry Matter accumulation (DMA) ([3]; 2X (10 g ai./ha)): 72.66^c
Dry Matter accumulation (DMA) ([4]; 1X (5 g ai./ha)): 25.40^ab
Mean Height Reduction (PH) ([4]; 1X (5 g ai./ha)): 19.47^a
Phytotoxicity Index (PI, 0-9) ([4]; 1X (5 g ai./ha)): 8.25^b
Dry Matter accumulation (DMA) ([4]; 2X (10 g ai./ha)): 18.80^a
Mean Height Reduction (PH) ([4]; 2X (10 g ai./ha)): 18.73^a
Phytotoxicity Index (PI, 0-9) ([4]; 2X (10 g ai./ha)): 8.5^c
Dry Matter accumulation (DMA) ([5]; 1X (5 g ai./ha)): 19.90^a
Mean Height Reduction (PH) ([5]; 1X (5 g ai./ha)): 22.45^a
Phytotoxicity Index (PI, 0-9) ([5]; 1X (5 g ai./ha)): 8.67^d
Dry Matter accumulation (DMA) ([5]; 2X (10 g ai./ha)): 18.23^a
Mean Height Reduction (PH) ([5]; 2X (10 g ai./ha)): 20.56^a
Phytotoxicity Index (PI, 0-9) ([5]; 2X (10 g ai./ha)): 8.82^cd
Dry Matter accumulation (DMA) ([6]; 1X (5 g ai./ha)): 30.39^b
Mean Height Reduction (PH) ([6]; 1X (5 g ai./ha)): 21.55^a
Phytotoxicity Index (PI, 0-9) ([6]; 1X (5 g ai./ha)): 8.70^d
Dry Matter accumulation (DMA) ([6]; 2X (10 g ai./ha)): 20.45^a
Mean Height Reduction (PH) ([6]; 2X (10 g ai./ha)): 21.70^a
Phytotoxicity Index (PI, 0-9) ([6]; 2X (10 g ai./ha)): 9.00^d

CC(C)C1(C)N=C(c2ncccc2C(=O)O)NC1=O (stereo not shown) [imazapyr]
Mean Phytotoxicity Index (PI, 0-9) [7]: 0.2
biomass accumulation, % of untreated ([8]; 1x (80 g ai/ha)): 15.0%
biomass accumulation, % of untreated ([8]; 2x (160 g ai/ha)): 15.0%
biomass accumulation, % of untreated ([8]; 3x (240 g ai/ha)): 15.0%
biomass accumulation, % of untreated ([8]; 4x (320 g ai/ha)): 15.0%
biomass accumulation, % of untreated ([8]; 5x (400 g ai/ha)): 15.0%
biomass accumulation, % of untreated ([8]; 6x (480 g ai/ha)): 15.0%
Phytotoxicity Index (0-9) ([8]; in vivo): 9
Phytotoxicity Index (0-9) ([9]; 0.5x (40 g ai/ha)): 0.0
biomass accumulation, % of untreated ([9]; 0.5x (40 g ai/ha)): 100.0%
plant height, % of untreated ([9]; 0.5x (40 g ai/ha)): 100.0%
Phytotoxicity Index (0-9) ([9]; 1x (80 g ai/ha)): 0.0
plant height, % of untreated ([9]; 1x (80 g ai/ha)): 100.0%
Phytotoxicity Index (0-9) ([9]; 2x (160 g ai/ha)): 0.0
biomass accumulation, % of untreated ([9]; 2x (160 g ai/ha)): 97.0%
Phytotoxicity Index (0-9) ([9]; 3x (240 g ai/ha)): 0.0
plant height, % of untreated ([9]; 3x (240 g ai/ha)): 97.0%
Phytotoxicity Index (0-9) ([9]; 4x (320 g ai/ha)): 0.0
Phytotoxicity Index (0-9) ([9]; 5x (400 g ai/ha)): 0.0
Phytotoxicity Index (0-9) ([9]; 6x (480 g ai/ha)): 0.5
Phytotoxicity Index (0-9) ([10]; 0.5x (40 g ai/ha)): 0.4
Phytotoxicity Index (0-9) ([10]; 1x (80 g ai/ha)): 0.4
Phytotoxicity Index (0-9) ([10]; 2x (160 g ai/ha)): 0.4
plant height, % of untreated ([10]; 2x (160 g ai/ha)): 92.0%
Phytotoxicity Index (0-9) ([10]; 3x (240 g ai/ha)): 0.5
Phytotoxicity Index (0-9) ([10]; 4x (320 g ai/ha)): 1.0
biomass accumulation, % of untreated ([10]; 4x (320 g ai/ha)): 75.0%
Phytotoxicity Index (0-9) ([10]; 5x (400 g ai/ha)): 2.0
Phytotoxicity Index (0-9) ([10]; 6x (480 g ai/ha)): 2.5
height reduction, % of untreated controls ([11]; A122T homozygous, 0.5x): 0.1%
height reduction, % of untreated controls ([11]; A122T homozygous, 6x): 18.8%
reduction in biomass weight ([11]; A122T homozygous, higher dose (6x)): 25%
Phytotoxicity Index (0-9) ([11]; A122T mean (H2,L3,L4), 0.5x (40 g ai/ha)): 0.3
Phytotoxicity Index (0-9) ([11]; A122T mean (H2,L3,L4), 1x (80 g ai/ha)): 0.3
Phytotoxicity Index (0-9) [11, 12]: 0.3
plant height, % of untreated [11, 12]: 98.0%
Phytotoxicity Index (0-9) [11, 13]: 0.3
biomass accumulation, % of untreated [11, 13]: 90.0** %
Phytotoxicity Index (0-9) ([11]; A122T mean (H2,L3,L4), 4x (320 g ai/ha)): 0.5
Phytotoxicity Index (0-9) ([11]; A122T mean (H2,L3,L4), 5x (400 g ai/ha)): 0.8
Phytotoxicity Index (0-9) ([11]; A122T mean (H2,L3,L4), 6x (480 g ai/ha)): 1.2
